Legend:
[1] = Surface tension / critical micelle concentration on a tensiometer; type: physicochemical; settings: 0.001 to 1 wt % in DI water, FIG. 1
Procedure: All samples were run on a tensiometer with the concentration of the amine surfactants ranging from 0.001 to 1 wt % in up to 50 mL DI water.

Staphylococcus aureus = assay: AOAC Official Method 960.09 Germicidal and Detergent Sanitizing Action of Disinfectants; type: cell-based; settings: pH 5, about 12.5 to about 400 ppm tested, 5-log reached only at the highest concentration tested
Excerpt: (§1) As used herein, the term “sanitizer” refers to an agent that reduces the number of bacterial contaminants to safe levels as judged by public health requirements. […] These reductions can be evaluated using a procedure set out in Germicidal and Detergent Sanitizing Action of Disinfectants, Official Methods of Analysis of the Association of Official Analytical Chemists, paragraph 960.09 and applicable sections, 15th Edition, 1990 (EPA Guideline 91-2). According to this reference a sanitizer should provide a 99.999% reduction (5-log order reduction) within 30 seconds at room temperature, 25±2° C., against several test organisms. […] Differentiation of antimicrobial “-cidal” or “-static” activity, the definitions which describe the degree of efficacy, and the official laboratory protocols for measuring this efficacy are considerations for understanding the relevance of antimicrobial agents and compositions. Antimicrobial compositions can affect two kinds of microbial cell damage. The first is a lethal, irreversible action resulting in complete microbial cell destruction or incapacitation. The second type of cell damage is reversible, such that if the organism is rendered free of the agent, it can again multiply. The former is termed microbiocidal and the later, microbiostatic. A sanitizer and a disinfectant are, by definition, agents which provide antimicrobial or microbiocidal activity.
(§2) In order to determine the efficacy of the amine-based surfactants in various environments as determined by different pH values, the surfactants were tested for antimicrobial efficacy on E. coli and Staphylococcus aureus.

E. coli = assay: as above; type: cell-based
Excerpt: as §1, §2

Glewwe foam test = type: physicochemical; settings: foam height; 120 F; pH 8.5
Procedure: The ability of a defoaming agent to control the foaming profile of the surfactant was also tested.
The foam height never surpassed the maximum height of 3 inches allowed by the Glewwe test for a passing test and generally had no foam or a low froth present. Even at a 3:1 ratio of surfactant to defoamer, the fatty alcohol alkoxylate was sufficient to keep the foam low for machine ware washing. At lower ratios, such as 2:1 or 1:1 surfactant to defoamer, the level of foam was even better maintained at a low to nonexistent amount.

surface tension ([1]; pH 5): about 35 mN/m
surface tension ([1]; pH 7): about 35 mN/m
surface tension ([1]; pH 9): about 32 mN/m
Surfactant Foam Profile 0 min (Glewwe foam test): 9
Surfactant Foam Profile 15 sec (Glewwe foam test): 9
Surfactant Foam Profile 1 min (Glewwe foam test): 8
SMILES: CCCCCCCCCCCCN(CCCN)CCCN [bis(3-aminopropyl)dodecylamine]
log reduction (Staphylococcus aureus): < 5 log
log reduction (E. coli; pH 5, about 12.5 to about 400 ppm tested, 5-log reached only at the highest concentration tested): < 5 log
concentration to achieve a 5-log reduction (E. coli; pH 7): 50 ppm
